US20260078103A1, “ISOQUINOLONES AS PI3K INHIBITORS” (OnKure, Inc., priority 2022, published 2026)

These compounds were tested on SKBR3 cells express WT PI3Ka (assay: In vitro cell proliferation, SKBR3 cells (CellTiter-Glo)). Conditions: Homo sapiens, SK-BR-3, 72 h, inhibition of proliferation.
Type: cell-based
Outline: (§1)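 T47D (PI3Kα H1047R; RPMI, 10% FBS, insulin 0.2 units/mL) or SKBR3 (WT PI3Kα; McCoys 5a, 10% FBS) cells seeded at 1,500 cells/well on 10-point compound dilutions, grown 72 h at 37 °C. CellTiter-Glo luminescence; inhibition normalised to 0.1% DMSO and 10 uM alpelisib, EC50 from four-parameter fit.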

| Structure (SMILES) | EC50 |
| --- | --- |
| Cc1cc(C(C)Nc2ccccc2C(=O)O)c2cc(N3CCS(=O)(=O)CC3)n(C)c(=O)c2c1 (single isomer, unassigned) [Example 150] | > 15 µM |
| COc1ccc(-c2cc3c(C(C)Nc4ccccc4C(=O)O)cc(C)cc3c(=O)n2C)cn1 (single isomer, unassigned) [Example 155] | > 15 µM |
| Cc1cc(C(C)Nc2ccccc2C(=O)O)c2cc(N3Cc4ccc(F)c(F)c4C3)n(C)c(=O)c2c1 (single isomer, unassigned) [Example 177] | > 15 µM |
| Cc1cc(C(C)Nc2ccccc2C(=O)O)c2cc(N3CC(C)(O)C3)n(C)c(=O)c2c1 (single isomer, unassigned) [Example 181] | > 15 µM |
| COC1(C)CN(c2cc3c(C(C)Nc4ccccc4C(=O)O)cc(C)cc3c(=O)n2C)C1 (single isomer, unassigned) [Example 183] | > 15 µM |
| Cc1cc([C@@H](C)Nc2ccccc2C(=O)O)c2cc(N3CC4CC3CN4CC(F)(F)F)n(C)c(=O)c2c1 (single isomer, unassigned) [Example 211] | > 15 µM |
| Cc1cc([C@@H](C)Nc2ccccc2C(=O)O)c2cc(N3CCN(C(C)C(F)(F)F)CC3)n(C)c(=O)c2c1 (single isomer, unassigned) [Example 278] | > 15 µM |
| Cc1cc([C@@H](C)Nc2ccccc2C(=O)O)c2cc(N3CCN(C)C(C(F)(F)F)C3)n(C)c(=O)c2c1 (single isomer, unassigned) [Example 301] | > 15 µM |
| Cc1cc([C@@H](C)Nc2ccccc2C(=O)O)c2cc(C3C[C@H]3C3CC3)n(C)c(=O)c2c1 (single isomer, unassigned) [Example 309] | > 15 µM |

Same assay, conditions: inhibition of proliferation, 72 hours

| Structure (SMILES) | EC50 |
| --- | --- |
| Cc1cc(C(C)Nc2ccccc2C(=O)O)c2cc(N3CCN(C(=O)OC(C)C)CC3)n(C)c(=O)c2c1 (single isomer, unassigned) [Example 149] | 2 to 15 µM |
| Cc1cc(C(C)Nc2ccccc2C(=O)O)c2cc(N3CCS(=O)(=O)CC3)n(C)c(=O)c2c1 (single isomer, unassigned) [Example 151] | > 15 µM |
| COC1(C)CCN(c2cc3c(C(C)Nc4ccccc4C(=O)O)cc(C)cc3c(=O)n2C)CC1 (single isomer, unassigned) [Example 153] | 2 to 15 µM |
| COC1(C)CCN(c2cc3c(C(C)Nc4ccccc4C(=O)O)cc(C)cc3c(=O)n2C)CC1 (single isomer, unassigned) [Example 154] | > 15 µM |
| COc1ccc(-c2cc3c(C(C)Nc4ccccc4C(=O)O)cc(C)cc3c(=O)n2C)cn1 (single isomer, unassigned) [Example 156] | > 15 µM |

Each compound was assayed on T47D cells expressing mutant PI3Ka (H1047R) (assay: In vitro cell proliferation, T47D cells (CellTiter-Glo)). Conditions: Homo sapiens, T47D, 72 h, inhibition of proliferation, read-out: Avg T-47D EC50.
Type: cell-based
Outline: as §1

| Structure (SMILES) | EC50 |
| --- | --- |
| Cc1cc([C@@H](C)Nc2ccccc2C(=O)O)c2cc(N3CCN(C(C)C(F)(F)F)CC3)n(C)c(=O)c2c1 (single isomer, unassigned) [Example 278] | 0.001 to 0.5 µM |
| Cc1cc([C@@H](C)Nc2ccccc2C(=O)O)c2cc(N3CCN(C)C(C(F)(F)F)C3)n(C)c(=O)c2c1 (single isomer, unassigned) [Example 301] | 0.001 to 0.5 µM |
| Cc1cc([C@@H](C)Nc2ccccc2C(=O)O)c2cc(C3C[C@H]3C3CC3)n(C)c(=O)c2c1 (single isomer, unassigned) [Example 309] | 0.001 to 0.5 µM |

Same assay, conditions: inhibition of proliferation, 72 hours, read-out: Avg T-47D EC50

| Structure (SMILES) | EC50 |
| --- | --- |
| Cc1cc(C(C)Nc2ccccc2C(=O)O)c2cc(N3CCN(C(=O)OC(C)C)CC3)n(C)c(=O)c2c1 (single isomer, unassigned) [Example 149] | 0.001 to 0.5 µM |
| Cc1cc(C(C)Nc2ccccc2C(=O)O)c2cc(N3CCS(=O)(=O)CC3)n(C)c(=O)c2c1 (single isomer, unassigned) [Example 150] | 2 to 15 µM |
| Cc1cc(C(C)Nc2ccccc2C(=O)O)c2cc(N3CCS(=O)(=O)CC3)n(C)c(=O)c2c1 (single isomer, unassigned) [Example 151] | > 15 µM |
| COC1(C)CCN(c2cc3c(C(C)Nc4ccccc4C(=O)O)cc(C)cc3c(=O)n2C)CC1 (single isomer, unassigned) [Example 153] | 0.001 to 0.5 µM |
| COC1(C)CCN(c2cc3c(C(C)Nc4ccccc4C(=O)O)cc(C)cc3c(=O)n2C)CC1 (single isomer, unassigned) [Example 154] | 2 to 15 µM |
| COc1ccc(-c2cc3c(C(C)Nc4ccccc4C(=O)O)cc(C)cc3c(=O)n2C)cn1 (single isomer, unassigned) [Example 155] | 0.001 to 0.5 µM |
| COc1ccc(-c2cc3c(C(C)Nc4ccccc4C(=O)O)cc(C)cc3c(=O)n2C)cn1 (single isomer, unassigned) [Example 156] | 2 to 15 µM |
| Cc1cc(C(C)Nc2ccccc2C(=O)O)c2cc(N3Cc4ccc(F)c(F)c4C3)n(C)c(=O)c2c1 (single isomer, unassigned) [Example 177] | 2 to 15 µM |
| Cc1cc(C(C)Nc2ccccc2C(=O)O)c2cc(N3CC(C)(O)C3)n(C)c(=O)c2c1 (single isomer, unassigned) [Example 181] | > 15 µM |
| COC1(C)CN(c2cc3c(C(C)Nc4ccccc4C(=O)O)cc(C)cc3c(=O)n2C)C1 (single isomer, unassigned) [Example 183] | > 15 µM |
| Cc1cc([C@@H](C)Nc2ccccc2C(=O)O)c2cc(N3CC4CC3CN4CC(F)(F)F)n(C)c(=O)c2c1 (single isomer, unassigned) [Example 211] | 0.5 to 2 µM |

What follows are compounds tested on phosphorylation of AKT (pAKT) in T47D cells expressing mutant PI3Ka (H1047R) (assay: In vitro cell pAKT (Ser473) HTRF, T47D cells). Conditions: Homo sapiens, T47D, 6 h, cellular pAKT, T47D cells, mutant PI3Ka (H1047R), 6 hours; read-out: Avg T-47D IC50.
Type: cell-based
Outline: (§2)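 pAKT (Ser473) was quantified by HTRF in lysates from cells exposed 6 h at 37 °C to 10-point compound series, with T47D in insulin-supplemented RPMI/10% FBS and SKBR3 in McCoy's 5a/10% FBS. Controls: 0.1% DMSO (high) and 10 uM alpelisib (low). IC50 from sigmoidal curve fitting.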

| Structure (SMILES) | IC50 |
| --- | --- |
| Cc1cc([C@@H](C)Nc2ccccc2C(=O)O)c2cc(N3CC4CC3CN4CC(F)(F)F)n(C)c(=O)c2c1 (single isomer, unassigned) [Example 211] | 0.001 to 0.5 µM |
| Cc1cc([C@@H](C)Nc2ccccc2C(=O)O)c2cc(N3CCN(C(C)C(F)(F)F)CC3)n(C)c(=O)c2c1 (single isomer, unassigned) [Example 278] | 0.001 to 0.5 µM |
| Cc1cc([C@@H](C)Nc2ccccc2C(=O)O)c2cc(N3CCN(C)C(C(F)(F)F)C3)n(C)c(=O)c2c1 (single isomer, unassigned) [Example 301] | 0.001 to 0.5 µM |
| Cc1cc([C@@H](C)Nc2ccccc2C(=O)O)c2cc(C3C[C@H]3C3CC3)n(C)c(=O)c2c1 (single isomer, unassigned) [Example 309] | 0.001 to 0.5 µM |

Same assay, conditions: cellular pAKT, T47D cells, mutant PI3Ka (H1047R), 6 hours; read-out: Avg T-47D IC50

| Structure (SMILES) | IC50 |
| --- | --- |
| Cc1cc(C(C)Nc2ccccc2C(=O)O)c2cc(N3CCN(C(=O)OC(C)C)CC3)n(C)c(=O)c2c1 (single isomer, unassigned) [Example 149] | 0.001 to 0.5 µM |
| Cc1cc(C(C)Nc2ccccc2C(=O)O)c2cc(N3CCS(=O)(=O)CC3)n(C)c(=O)c2c1 (single isomer, unassigned) [Example 150] | 2 to 15 µM |
| Cc1cc(C(C)Nc2ccccc2C(=O)O)c2cc(N3CCS(=O)(=O)CC3)n(C)c(=O)c2c1 (single isomer, unassigned) [Example 151] | > 15 µM |
| COC1(C)CCN(c2cc3c(C(C)Nc4ccccc4C(=O)O)cc(C)cc3c(=O)n2C)CC1 (single isomer, unassigned) [Example 153] | 0.001 to 0.5 µM |
| COC1(C)CCN(c2cc3c(C(C)Nc4ccccc4C(=O)O)cc(C)cc3c(=O)n2C)CC1 (single isomer, unassigned) [Example 154] | > 15 µM |
| COc1ccc(-c2cc3c(C(C)Nc4ccccc4C(=O)O)cc(C)cc3c(=O)n2C)cn1 (single isomer, unassigned) [Example 155] | 0.001 to 0.5 µM |
| COc1ccc(-c2cc3c(C(C)Nc4ccccc4C(=O)O)cc(C)cc3c(=O)n2C)cn1 (single isomer, unassigned) [Example 156] | 2 to 15 µM |
| Cc1cc(C(C)Nc2ccccc2C(=O)O)c2cc(N3Cc4ccc(F)c(F)c4C3)n(C)c(=O)c2c1 (single isomer, unassigned) [Example 177] | > 15 µM |
| Cc1cc(C(C)Nc2ccccc2C(=O)O)c2cc(N3CC(C)(O)C3)n(C)c(=O)c2c1 (single isomer, unassigned) [Example 181] | > 15 µM |
| COC1(C)CN(c2cc3c(C(C)Nc4ccccc4C(=O)O)cc(C)cc3c(=O)n2C)C1 (single isomer, unassigned) [Example 183] | > 15 µM |

These compounds were tested on phosphorylation of AKT (pAKT) in SKBR3 cells express WT PI3Ka (assay: In vitro cell pAKT (Ser473) HTRF, SKBR3 cells). Conditions: Homo sapiens, SK-BR-3, 6 h, cellular pAKT.
Type: cell-based
Outline: as §2

| Structure (SMILES) | IC50 |
| --- | --- |
| Cc1cc(C(C)Nc2ccccc2C(=O)O)c2cc(N3CCS(=O)(=O)CC3)n(C)c(=O)c2c1 (single isomer, unassigned) [Example 150] | > 15 µM |
| COc1ccc(-c2cc3c(C(C)Nc4ccccc4C(=O)O)cc(C)cc3c(=O)n2C)cn1 (single isomer, unassigned) [Example 155] | > 15 µM |
| Cc1cc(C(C)Nc2ccccc2C(=O)O)c2cc(N3Cc4ccc(F)c(F)c4C3)n(C)c(=O)c2c1 (single isomer, unassigned) [Example 177] | > 15 µM |
| Cc1cc(C(C)Nc2ccccc2C(=O)O)c2cc(N3CC(C)(O)C3)n(C)c(=O)c2c1 (single isomer, unassigned) [Example 181] | > 15 µM |
| COC1(C)CN(c2cc3c(C(C)Nc4ccccc4C(=O)O)cc(C)cc3c(=O)n2C)C1 (single isomer, unassigned) [Example 183] | > 15 µM |
| Cc1cc([C@@H](C)Nc2ccccc2C(=O)O)c2cc(N3CC4CC3CN4CC(F)(F)F)n(C)c(=O)c2c1 (single isomer, unassigned) [Example 211] | > 15 µM |
| Cc1cc([C@@H](C)Nc2ccccc2C(=O)O)c2cc(N3CCN(C(C)C(F)(F)F)CC3)n(C)c(=O)c2c1 (single isomer, unassigned) [Example 278] | > 15 µM |
| Cc1cc([C@@H](C)Nc2ccccc2C(=O)O)c2cc(N3CCN(C)C(C(F)(F)F)C3)n(C)c(=O)c2c1 (single isomer, unassigned) [Example 301] | > 15 µM |

Same assay, conditions: cellular pAKT, 6 hours

| Structure (SMILES) | IC50 |
| --- | --- |
| Cc1cc(C(C)Nc2ccccc2C(=O)O)c2cc(N3CCN(C(=O)OC(C)C)CC3)n(C)c(=O)c2c1 (single isomer, unassigned) [Example 149] | 2 to 15 µM |
| Cc1cc(C(C)Nc2ccccc2C(=O)O)c2cc(N3CCS(=O)(=O)CC3)n(C)c(=O)c2c1 (single isomer, unassigned) [Example 151] | > 15 µM |
| COC1(C)CCN(c2cc3c(C(C)Nc4ccccc4C(=O)O)cc(C)cc3c(=O)n2C)CC1 (single isomer, unassigned) [Example 153] | 2 to 15 µM |
| COC1(C)CCN(c2cc3c(C(C)Nc4ccccc4C(=O)O)cc(C)cc3c(=O)n2C)CC1 (single isomer, unassigned) [Example 154] | > 15 µM |
| COc1ccc(-c2cc3c(C(C)Nc4ccccc4C(=O)O)cc(C)cc3c(=O)n2C)cn1 (single isomer, unassigned) [Example 156] | > 15 µM |
| Cc1cc([C@@H](C)Nc2ccccc2C(=O)O)c2cc(C3C[C@H]3C3CC3)n(C)c(=O)c2c1 (single isomer, unassigned) [Example 309] | 2 to 15 µM |
